The values that follow come from ChEMBL document CHEMBL1201862, “PubChem BioAssay data set” (2004).

Some test systems named below: HOP-92; NCI-H226; K562; DMS-273; HOP-62; TK-10; SNB-19; SK-MEL-2; IGROV-1; HCC 2998; SK-MEL-28; SF-295; UACC-62; HL-60; DLD-1; KM-20L2; SN12C; HCT-15.
Holding throughout (experiment): NCI anticancer screen, dose series, 48 h

Each structure is given as a SMILES string.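 Tested at 5 concentrations; 48 h exposure; 96-well plates; endpoints linearly interpolated, else capped at highest concentration. Abbreviation: GI50, concentration required for 50% inhibition of growth.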 Active and inactive are the calls of the source. Cut-off read from the data, not from the text of the source: active = GI50 up to about 1.1 µM and inactive = higher.

Consider `COC(=O)C(/C(=N/NC(N)=O)C(=O)Nc1c(C)cccc1C(C)(C)C)c1nc2ccc(Cl)cc2nc1O` (stereo not drawn), for which the GI50 in the assay with HOP-92, in the assay on NCI-H226, in the assay with K562, in the assay with DMS-273, with HOP-62 and in the assay with TK-10 was > 100 µM (inactive) throughout. Besides, the GI50 with SNB-19, in the assay with SK-MEL-2, in the assay with IGROV-1, in the assay on HCC 2998, in the assay on SK-MEL-28 and in the assay with SF-295 was > 100 µM (inactive) each time. Moreover, the GI50 in the assay with UACC-62 is > 100 µM (inactive); with HL-60, > 100 µM (inactive); in the assay on DLD-1, > 100 µM (inactive); in the assay with KM-20L2, > 100 µM (inactive); with SN12C, > 100 µM (inactive); with HCT-15 it was over 100 µM.
Consider `CC(=O)n1c(=O)c2cc3c(=O)n(-c4cccc(C#N)c4)c(=O)c3cc2c1=O`, for which the GI50 with HOP-92 is 39.2 µM (inactive); in the assay on NCI-H226, > 100 µM (inactive); with K562, > 100 µM (inactive); in the assay with DMS-273 it was 88.1 µM (inactive); in the assay on HOP-62, 45.5 µM (inactive); in the assay with TK-10, > 100 µM (inactive). Further, the GI50 was 67 µM (inactive) in the assay with SNB-19; > 100 µM (inactive) with SK-MEL-2; > 100 µM (inactive) in the assay with IGROV-1; > 100 µM (inactive) in the assay with HCC 2998; > 100 µM (inactive) in the assay on SK-MEL-28; 60.7 µM (inactive) in the assay on SF-295. The GI50 in the assay on UACC-62 was > 100 µM (inactive); in the assay on HL-60 it was > 100 µM (inactive); in the assay with DLD-1 it was > 100 µM (inactive); with KM-20L2, > 100 µM (inactive); with SN12C it was > 100 µM (inactive); with HCT-15, over 100 µM.
Take `CSc1nc2nccnc2c(=O)[nH]1`: the GI50 is 96.2 µM (inactive) in the assay on HOP-92; > 100 µM (inactive) in the assay on NCI-H226; > 100 µM (inactive) with K562; > 100 µM (inactive) with DMS-273; > 100 µM (inactive) with HOP-62; > 100 µM (inactive) in the assay on TK-10. Besides, the GI50 in the assay with SNB-19, in the assay on SK-MEL-2, in the assay on IGROV-1, with HCC 2998, with SK-MEL-28 and in the assay with SF-295 was > 100 µM (inactive) in each case. In addition, the GI50 in the assay with UACC-62 was > 100 µM (inactive); in the assay with HL-60, > 100 µM (inactive); with DLD-1, > 100 µM (inactive); in the assay with KM-20L2 it was > 100 µM (inactive); with SN12C, > 100 µM (inactive); in the assay on HCT-15, over 100 µM.
For the compound `COc1cc(-c2nn3c(=O)n(-c4ccc(Cl)cc4)c(=O)nc3s2)cc(OC)c1OC`, the GI50 in the assay on HOP-92 is 15.5 µM (inactive); in the assay on NCI-H226, > 55.7 µM (inactive); with K562, > 31.6 µM (inactive); in the assay on DMS-273, 23.2 µM (inactive); in the assay on HOP-62, 18.4 µM (inactive); in the assay on TK-10 it was 8.55 µM (inactive). The GI50 was 19.1 µM (inactive) with SNB-19; 24.9 µM (inactive) in the assay on SK-MEL-2; > 89.1 µM (inactive) in the assay with IGROV-1; > 100 µM (inactive) in the assay with HCC 2998; > 93.1 µM (inactive) in the assay on SK-MEL-28; > 50 µM (inactive) in the assay with SF-295. The GI50 in the assay on UACC-62 was > 50 µM (inactive); in the assay on HL-60 it was > 50 µM (inactive); in the assay on DLD-1 it was > 86.9 µM (inactive); in the assay with KM-20L2, > 100 µM (inactive); with SN12C it was > 96.2 µM (inactive); in the assay with HCT-15, over 88.3 µM.
As for `C(=C\C(Sc1ccccc1)c1ccccc1)/NNC1=NN=C(c2ccccc2)C(c2ccccc2)N1` (stereo not drawn), the GI50 with HOP-92 was 16.3 µM (inactive); in the assay on NCI-H226, 64.4 µM (inactive); in the assay on K562 it was 13.1 µM (inactive); with DMS-273 it was 44.6 µM (inactive); with HOP-62 it was 16.5 µM (inactive); with TK-10, 61.2 µM (inactive). The GI50 in the assay on SNB-19 is 48.6 µM (inactive); with SK-MEL-2, 74 µM (inactive); in the assay on IGROV-1, 68.5 µM (inactive); with HCC 2998, 27.7 µM (inactive); in the assay with SK-MEL-28, > 100 µM (inactive); in the assay with SF-295 it was 32.7 µM (inactive). The GI50 in the assay with UACC-62 was 21.5 µM (inactive); with HL-60, 15.2 µM (inactive); in the assay with DLD-1 it was 18.2 µM (inactive); in the assay on KM-20L2, 24.8 µM (inactive); in the assay on SN12C, 55 µM (inactive); in the assay with HCT-15, 23.5 µM.
On to `CC1CCC2(NC1)OC1CC3[C@@H]4CC=C5C=CCC[C@]5(C)C4CC[C@]3(C)C1C2C` (stereo partly drawn), for which the GI50 with HOP-92 was 19.7 µM (inactive); in the assay on NCI-H226, 35.2 µM (inactive); with K562, 18.5 µM (inactive); with DMS-273, > 10 µM (inactive); in the assay on HOP-62, 18.6 µM (inactive); in the assay with TK-10, 15.3 µM (inactive). The GI50 was 38.5 µM (inactive) with SNB-19; 19 µM (inactive) with SK-MEL-2; 30.3 µM (inactive) in the assay on IGROV-1; 17.2 µM (inactive) with HCC 2998; 15.6 µM (inactive) with SK-MEL-28; 23.3 µM (inactive) in the assay on SF-295. In addition, the GI50 in the assay on UACC-62 was 21 µM (inactive); in the assay on HL-60, 12.3 µM (inactive); in the assay on DLD-1, 23.3 µM (inactive); in the assay with KM-20L2, 17.9 µM (inactive); in the assay on SN12C, 27.7 µM (inactive); with HCT-15 it was 21 µM.
Regarding `COc1ccc(-c2cc(=O)c3c(O)cccc3o2)c(OC)c1OC`, the GI50 is 19.9 µM (inactive) in the assay on HOP-92; > 100 µM (inactive) with NCI-H226; 6.59 µM (inactive) with K562; 13.7 µM (inactive) with DMS-273; 10.3 µM (inactive) in the assay on HOP-62; 47.1 µM (inactive) in the assay on TK-10. For the same compound, the GI50 in the assay with SK-MEL-2 was 20.2 µM (inactive); with IGROV-1, > 100 µM (inactive); with HCC 2998, > 100 µM (inactive); with SK-MEL-28, > 100 µM (inactive); in the assay with SF-295, 43.2 µM (inactive); in the assay with UACC-62, > 100 µM (inactive). Besides, the GI50 in the assay with HL-60 was 10.1 µM (inactive); in the assay on DLD-1, > 100 µM (inactive); in the assay on KM-20L2, > 100 µM (inactive); with SN12C, 76.9 µM (inactive); in the assay with HCT-15, 10.1 µM.
Turning to `c1ccc(COc2ccc3[nH]c4c5c6ccccc6nc-5c[nH]c4c3c2)cc1`, the GI50 is 15.8 µM (inactive) with HOP-92; 15.4 µM (inactive) in the assay with NCI-H226; 2.48 µM (inactive) in the assay on K562; 16.6 µM (inactive) in the assay on DMS-273; 15.8 µM (inactive) in the assay on HOP-62; 21.9 µM (inactive) with TK-10. Also, the GI50 is 17.7 µM (inactive) with SNB-19; 16.9 µM (inactive) in the assay with SK-MEL-2; 13.8 µM (inactive) in the assay with IGROV-1; 10.5 µM (inactive) in the assay on HCC 2998; 17.2 µM (inactive) in the assay with SK-MEL-28; 14.8 µM (inactive) with SF-295. The GI50 is 19.6 µM (inactive) in the assay with UACC-62; 2.19 µM (inactive) with HL-60; 12.4 µM (inactive) in the assay on DLD-1; 8.02 µM (inactive) in the assay on KM-20L2; 15.4 µM (inactive) in the assay with SN12C; 4.3 µM in the assay with HCT-15.
